Measurements published in patent US20250144067A1, “PERSONALIZED STARVATION THERAPY FOR CANCER” (Faeth Therapeutics, Inc., priority 2021, published 2025).
Counter-ions that a name gives are not always drawn.

Columns and labels:
[1] = tested on: NCI-H292 lung cancer cells; test: FDA drug screening, complete media vs cholesterol-free media without statin (TABLE 1); format: cell-based, human
[2] = tested on: NCI-H292 lung cancer cells; test: FDA drug screening, complete media vs cholesterol-free media with simvastatin (TABLE 2); format: cell-based, human; conditions: for Cholesterol-free media + simvastatin (0.04 μM) / Complete Media: NCI-H292 cells
[3] = Complete minus Cholesterol-free, >0 enhanced anti-cancer activity, about 0 neutral, <0 antagonist
[4] = NCI-H292 cells, cholesterol-free media without statin, FDA drug library screen
[5] = NCI-H292 cells, complete media, FDA drug library screen
[6] = cholesterol-free media with simvastatin 0.04 μM, FDA drug library screen (TABLE 2)
[7] = complete media, FDA drug library screen (TABLE 2)
[8] = complete media minus cholesterol-free media + simvastatin (0.04 μM), >0 enhanced anti-cancer activity, about 0 neutral, <0 antagonist
[9] = complete media minus cholesterol-free media + simvastatin, >0 enhanced anti-cancer activity, about 0 neutral, <0 antagonist
[10] = complete vs cholesterol-free media, […]
[11] = FDA drug library screen, cholesterol-free media with simvastatin 0.04 μM
[12] = FDA drug library screen, complete media
[13] = complete media vs cholesterol-free media + simvastatin (0.04 μM), […]
[14] = complete vs cholesterol-free media, >0 enhanced anti-cancer activity, about 0 neutral, <0 antagonist
[15] = FDA library drug in cholesterol-free media with simvastatin 0.04 μM
[16] = FDA library drug in complete media
[17] = complete media vs cholesterol-free media + simvastatin (0.04 μM), >0 enhanced anti-cancer activity, about 0 neutral, <0 antagonist
[18] = drug in cholesterol-free media with simvastatin 0.04 μM
[19] = Complete minus Cholesterol-free, greater than 0 enhanced anti-cancer activity, about 0 neutral, below 0 antagonist
[20] = NCI-H292 cells, FDA drug library screen, cholesterol-free media without statin
[21] = NCI-H292 cells, FDA drug library screen, complete media
[22] = NCI-H292 cells, cholesterol-free media without statin
[23] = complete vs cholesterol-free media, greater than 0 enhanced anti-cancer activity, about 0 neutral, below 0 antagonists
[24] = Complete minus Cholesterol-free, greater than 0 enhanced anti-cancer activity, about 0 neutral, below 0 antagonists
[25] = NCI-H292 cells in cholesterol-free media without statin
[26] = NCI-H292 cells in complete media

Molecule | Difference [1, 3] | Cholesterol-free [1, 4] | Complete [1, 5] | Difference [2, 8] | Cholesterol-free media + simvastatin (0.04 μM) [2, 11] | Complete Media [2, 12] | Difference [2, 17] | further results
CC(C)(C)C(=O)OCOP(=O)(COCCn1cnc2c(N)ncnc21)OCOC(=O)C(C)(C)C [Adefovir dipivoxil] | −0.04 | 0.1811 | 0.1375 | −0.05 | – | – | – | Cholesterol-free media + simvastatin (0.04 μM) [2, 6]: 0.2485; Complete Media [2, 7]: 0.1986
CC(C)NCC(O)COc1ccc(CCOCC2CC2)cc1 (stereo not shown) [Betaxolol (hydrochloride)] | −0.02 | 0.8929 | 0.8739 | – | – | – | – | Cholesterol-free media + simvastatin (0.04 μM) ([2]; cholesterol-free media with simvastatin 0.04 μM, cell growth value in FDA drug screen): 1.08; Complete Media ([2]; complete media, cell growth value in FDA drug screen): 1.11; Difference [2, 9]: 0.03
N[C@@H](CCC(=O)O)C(=O)O [(S)-Glutamic acid] | – | 1.299 | 1.635 | – | 0.9378 | 0.8445 | – | Difference [1, 10]: 0.34; Difference [2, 13]: −0.09
CCN1CCN(Cc2ccc(Nc3ncc(F)c(-c4cc(F)c5nc(C)n(C(C)C)c5c4)n3)nc2)CC1 [Abemaciclib] | – | 0.7212 | 0.8498 | – | – | – | −0.34 | Difference [1, 14]: 0.13; Cholesterol-free media + simvastatin (0.04 μM) [2, 15]: 1.011; Complete Media [2, 16]: 0.6686
C#C[C@]1(O)CC[C@H]2[C@@H]3CCC4=Cc5oncc5C[C@]4(C)[C@H]3CC[C@@]21C [Danazol] | −0.06 | 0.8249 | 0.7604 | – | 1.056 | 0.9458 | −0.11 | –
O=C([O-])CCCc1ccccc1.[Na+] [Sodium 4-phenylbutyrate] | – | 0.7629 | 1.099 | – | – | – | −0.19 | Difference [1, 14]: 0.34; Cholesterol-free media + simvastatin (0.04 μM) [2, 18]: 1.094; Complete Media ([2]; drug in complete media): 0.9051
Sertaconazole (nitrate) | – | 0.6893 | 0.8595 | – | 0.3702 | 0.8436 | – | Difference [1, 14]: 0.17; Difference [2, 9]: 0.47
Cc1ncc([N+](=O)[O-])n1CC(O)CCl (stereo not shown) [Ornidazole] | – | 0.6543 | 1.082 | – | – | – | −0.18 | Difference [1, 14]: 0.43; Cholesterol-free media + simvastatin (0.04 μM) [2, 18]: 1.385; Complete Media ([2]; drug in complete media): 1.209
Cc1cnc(Nc2ccc(OCCN3CCCC3)cc2)nc1Nc1cccc(S(=O)(=O)NC(C)(C)C)c1 [Fedratinib (hydrochloride hydrate)] | – | – | – | – | – | – | −0.26 | Difference [1, 19]: −0.13; Cholesterol-free [1, 20]: 0.469; Complete [1, 21]: 0.341; Cholesterol-free media + simvastatin (0.04 μM) [2, 18]: 0.6402; Complete Media ([2]; drug in complete media): 0.3774
C[n+]1ccccc1C=NO.[I-] [Pralidoxime (iodide)] | – | – | – | – | 0.9948 | 0.8823 | – | Difference ([1]; Complete minus Cholesterol-free, […]): −0.07; Cholesterol-free [1, 20]: 1.049; Complete [1, 21]: 0.9757; Difference [2, 13]: −0.11
O=C1c2cccc3c2[C@H](CCC3)CN1[C@@H]1CN2CCC1CC2 [Palonosetron (Hydrochloride)] | – | – | – | – | – | – | −0.26 | Cholesterol-free [1, 22]: 1.075; Complete ([1]; NCI-H292 cells, complete media): 0.7009; Difference [1, 23]: −0.37; Cholesterol-free media + simvastatin (0.04 μM) [2, 18]: 1.184; Complete Media ([2]; drug in complete media): 0.927
Eprosartan (mesylate) | – | – | – | −0.01 | – | – | – | Difference [1, 24]: −0.55; Cholesterol-free [1, 25]: 1.415; Complete [1, 26]: 0.8697; Cholesterol-free media + simvastatin (0.04 μM) [2, 6]: 0.8775; Complete Media [2, 7]: 0.8724
CCc1cc(C(N)=S)ccn1 [Ethionamide] | – | – | – | 0.00 | – | – | – | Difference [1, 24]: −0.66; Cholesterol-free [1, 25]: 1.516; Complete [1, 26]: 0.857; Cholesterol-free media + simvastatin (0.04 μM) [2, 6]: 1.611; Complete Media [2, 7]: 1.611
N#C[C@@H]1C[C@@H]2C[C@@H]2N1C(=O)[C@@H](N)C12CC3CC(CC(O)(C3)C1)C2 [Saxagliptin] | −0.04 | 0.9657 | 0.9238 | −0.01 | – | – | – | Cholesterol-free media + simvastatin (0.04 μM) [2, 6]: 0.8307; Complete Media [2, 7]: 0.816
NC(=O)c1ncn([C@@H]2O[C@H](CO)[C@@H](O)[C@H]2O)c1O [Mizoribine] | – | – | – | – | 1.118 | 0.9745 | −0.14 | Difference [1, 19]: −0.10; Cholesterol-free [1, 20]: 0.879; Complete [1, 21]: 0.7795
Cc1nc(-c2ccc(OCC(C)C)c(C#N)c2)sc1C(=O)O [Febuxostat] | – | 0.955 | 1.415 | – | 1.155 | 1.036 | −0.12 | Difference [1, 14]: 0.46
O=C(O)CCC(=O)O [Succinic acid] | – | 0.9807 | 1.143 | −0.04 | – | – | – | Difference [1, 14]: 0.16; Cholesterol-free media + simvastatin (0.04 μM) [2, 6]: 1.729; Complete Media [2, 7]: 1.686
CC[C@H](C)C(=O)O[C@H]1C[C@@H](C)C=C2C=C[C@H](C)[C@H](CC[C@@H]3C[C@@H](O)CC(=O)O3)[C@H]21 [Lovastatin] | – | – | – | – | 0.5184 | 0.7992 | – | Difference [1, 19]: −0.11; Cholesterol-free [1, 20]: 0.7089; Complete [1, 21]: 0.603; Difference [2, 9]: 0.28
Nc1nc(O)c2ncn(COC(CO)CO)c2n1 [Ganciclovir (sodium)] | −0.19 | – | – | −0.03 | – | – | – | Cholesterol-free [1, 22]: 0.9099; Complete ([1]; NCI-H292 cells, complete media): 0.7218; Cholesterol-free media + simvastatin (0.04 μM) [2, 6]: 1.423; Complete Media [2, 7]: 1.395
O=C(Nc1nc(-c2cc(Cl)cs2)c(N2CCN(C3CCCCC3)CC2)s1)c1cnc(N2CCC(C(=O)O)CC2)c(Cl)c1 [Avatrombopag (hydrochloride)] | – | – | – | – | 1.18 | 1.082 | −0.10 | Difference [1, 19]: −0.15; Cholesterol-free [1, 20]: 0.9128; Complete [1, 21]: 0.7673
CCOc1ccc(Cc2cc([C@@H]3O[C@H](SC)[C@@H](O)[C@H](O)[C@H]3O)ccc2Cl)cc1 [Sotagliflozin] | – | – | – | – | 1.193 | 1.078 | −0.11 | Difference [1, 19]: −0.11; Cholesterol-free [1, 20]: 1.101; Complete [1, 21]: 0.9895
CC(=O)CC(c1ccc([N+](=O)[O-])cc1)c1c(O)c2ccccc2oc1=O (stereo not shown) [Acenocoumarol] | −0.28 | – | – | −0.90 | 2.014 | – | – | Cholesterol-free [1, 22]: 1.889; Complete ([1]; NCI-H292 cells, complete media): 1.605
CCCCCCCCCCCCCCCCOP(=O)([O-])OCC[N+](C)(C)C [Miltefosine] | −0.07 | 1.003 | 0.9345 | – | – | – | −0.25 | Cholesterol-free media + simvastatin (0.04 μM) [2, 18]: 1.237; Complete Media ([2]; drug in complete media): 0.9911
Cc1ncc([N+](=O)[O-])n1CCO [Metronidazole] | −0.03 | 1.006 | 0.9754 | – | – | – | −0.27 | Cholesterol-free media + simvastatin (0.04 μM) [2, 15]: 1.741; Complete Media [2, 16]: 1.475
Cc1cc(C(=O)NNCc2ccccc2)no1 [Isocarboxazid] | – | 0.685 | 1.428 | −0.05 | – | – | – | Difference [1, 14]: 0.74; Cholesterol-free media + simvastatin (0.04 μM) [2, 6]: 1.551; Complete Media [2, 7]: 1.506
[H]/N=C(\N/C(=N/[H])NCCCCCCNC(=N)NC(=N)Nc1ccc(Cl)cc1)Nc1ccc(Cl)cc1 [Chlorhexidine] | 0.04 | 0.0819 | 0.1259 | −0.03 | – | – | – | Cholesterol-free media + simvastatin (0.04 μM) [2, 6]: 0.6176; Complete Media [2, 7]: 0.5919
CNC(=C[N+](=O)[O-])NCCSCc1csc(CN(C)C)n1 [Nizatidine] | −0.23 | – | – | – | 1.118 | 0.9809 | −0.14 | Cholesterol-free [1, 22]: 1.253; Complete ([1]; NCI-H292 cells, complete media): 1.026
Angiotensin II 5-valine (DRVYVHPF; Angiotensin-2; UniProt P01019 25-32, looked up, variant I5V) | – | 0.8655 | 1.09 | – | 2.07 | – | – | Difference [1, 10]: 0.22; Difference ([2]; complete media minus cholesterol-free media + simvastatin (0.04 μM), […]): −0.98
CCC(c1ccccc1)c1c(O)c2ccccc2oc1=O (stereo not shown) [Phenprocoumon] | – | – | – | – | – | – | −0.16 | Cholesterol-free [1, 22]: 1.312; Complete ([1]; NCI-H292 cells, complete media): 0.8729; Difference [1, 23]: −0.44; Cholesterol-free media + simvastatin (0.04 μM) [2, 18]: 1.071; Complete Media ([2]; drug in complete media): 0.9061
